Reference: US6040149A, “Assay for identifying agents which act on the ceramide-activated protein kinase, kinase suppressor of ras, and methods of using said agents” (priority 1997, dated 2000)

Tests used:
EL-4 cells = assay: Sphingomyelin and ceramide levels in intact EL-4 cells; assay type: cell-based, murine; details: maximally effective concentrations (n=5)
Description: IL-1β effects on sphingomyelin levels in EL4 cells. Time course (A) and dose response (B). Cells were grown to growth arrest (1-1.5×10^6 cells ml^-1) in DME/Ham's F12 medium (1:1, v/v) containing 10% horse serum and for 48 hours [^3 H]choline (1 μCi ml^-1). On the day of an experiment, cells were resuspended back into the same medium at 10×10^6 cells ml^-1 and stimulated with 40 ng ml^-1 IL-1β for the indicated times (A) or for 30 minutes with increasing concentrations of IL-1β (B). Human IL-1β may be obtained using methods well known to those skilled in the art. Reactions were terminated with CHCl3 :CH3 OH:HCl (100:100:1) containing 10 mM EDTA (82). Lipids in the organic phase extract were dried under N2 and subjected to mild alkaline hydrolysis (0.1 M methanolic KOH for 1 hour at 37° C.) to remove glycerophospholipids. Sphingomyelin was resolved by thin-layer chromatography (TLC) using CHCl3 :CH3 OH:CH3 COOH:H2 O (60:30:8:5) as solvent, identified by iodine vapor staining, and quantified by liquid scintillation spectrometry. As previously reported, the use of [^3 H]choline as a measure of sphingomyelin content was validated by simultaneous phospholipid phosphorus measurements. Each value represents the mean±SEM of triplicate determinations from four experiments in (A), and one representative of four similar studies performed in triplicate in (B).
Effect of IL-1β on ceramide levels in EL-4 cells. Cells were stimulated as in FIG. 12 with IL-1β (40 ng ml^-1) and ceramide contained within the organic phase extract quantified enzymatically using the E. coli diacylglycerol kinase reaction. Lipids were resolved by TLC using CHCl3 :CH3 OH:CH3 COOH (65/15/5) as solvent, autoradiographed and quantified by liquid scintillation spectrometry. Each value represents the mean±SEM of triplicate determinations from 10 experiments.
The murine thymoma EL-4 cell line is a well-defined IL-1 responsive cell line that expresses functional IL-1 receptors. Upon stimulation with IL-1, these cells up-regulate the IL-2 receptor and secrete IL-2 [62]. Initial studies were designed to investigate the effects of IL-1β on cellular sphingomyelin content. Cells, grown in Dulbecco's Modified Eagle's (DME)/Ham's F-12 medium containing 10% horse serum and [^3 H]choline (1 μCi ml^-1), were resuspended back into the same medium at 10×10^6 cells ml^-1 and stimulated with IL-1β. IL-1β is commercially available.

[1] = system: ceramide-activated protein kinase; assay: Ceramide-activated protein kinase activity (EGFR peptide) in EL-4 cell fractions; details: 10 nM to 1 μM
Raf-1 = Raf-1 phosphorylation in intact HL-60 cells; assay type: cell-based, human (HL-60 cells)
Description: To examine this possibility, intact HL-60 cells were metabolically labeled with ^32 P-orthophosphate for 4 hr followed by stimulation with TNF for the indicated times (FIG. 20A). […] Raf-1 proteins were resolved by SDS-PAGE and autoradiographed.
FIG. 20A--300×10^6 cells were resuspended at 37° C. in 15 ml of serum-free phosphate-free RPMI medium ([…]) containing 6 mCi ^32 P-orthophosphate. After […], cells were resuspended into the same buffer without radiolabel (5×10^7 /point) and stimulated with TNF (1 nM). At the indicated times, ice-cold serum-free phosphate-free RPMI was added and cells were homogenized as described in FIG. 17 in RIPA lysis buffer. Cell debris was removed by centrifugation at 700×g for 5 min. […] After SDS-PAGE, Raf-1 was transferred to an Immobilon PVDF (Millipore) membrane according to the vendor's instructions. […] The data (CPM/Raf protein) are presented as fold of control and represent one of three studies performed in triplicate.

[2] = system: ceramide-activated protein kinase; details: ref. [40]; cited from earlier work

Question: Which ceramide response (EL-4 cells) does the source give for `CCCCCCCCCCCCCC(=O)O[C@@H]1[C@@H](C)[C@@]2(O)[C@@H](C=C(CO)C[C@]3(O)C(=O)C(C)=C[C@@H]23)[C@@H]2C(C)(C)[C@]12OC(C)=O` [TPA, 12-0-tetradecanoylphorbol-13-acetate] here?
Answer: failed to elicit a ceramide response

Question: For `CCCCCCCCCCCCC/C=C/[C@@H](O)[C@@H](N)CO` [sphingosine], which “enhancement of kinase activity, of control” value [1] is on record?
Answer: 1.5-2.5 of control

Question: What does the source list for TNF-α?
Answer: duration of elevated Raf-1 phosphorylation (Raf-1; TNF): at least 20 min; Raf-1 phosphorylation in intact HL-60 cells (Raf-1; TNF 1 nM, ceramide, sphingomyelinase 10 mU/ml): increased within seconds; ED50 for stimulation of ceramide-activated protein kinase in intact cells [2]: 0.2 nM
